Key:
[1] = biological target: PTGER2 (EP2) (Homo sapiens (Human), UniProt P43116); experiment: hEP2 b-arrestin assay (PathHunter HEK 293 PTGER2 b-arrestin cells); type: cell-based
From the text: (§1) The assay is using the PathHunter™ HEK 293 PTGER2 and PTGER4 b-arrestin cell lines from DiscoverX. The system is based on the Enzyme Fragment Complementation Technology. Two complementing fragments of the b-galactosidase enzyme are expressed within stably transfected cells. The larger portion of b-gal, termed EA for Enzyme Acceptor, is fused to the C-terminus of b-arrestin 2. The smaller fragment, termed ProLink™ tag, is fused to PTGER2 (EP2) or PTRGER4 (EP4) at the C-terminus. Upon activation, b-arrestin is recruited which forces the interaction of ProLink and EA, allowing complementation of the two fragments of b-gal and the formation of a functional enzyme which is capable of hydrolysing the substrate and generating a chemiluminescent signal.
(§2) 5000 cells per well of a 384 well plate (white with white bottom Greiner 781080) are seeded in 20 ul per well of GM. Plate is incubated at 37° C., 5% C02 for 24 hours.
Plate is pre-incubated 15 minutes at 37° C. Then five microliters of PGE2 (final conc. 5 μM) are transferred into the assay plate. Plate is incubated 120 minutes at 37° C.
(§3) Twelve μl of reagent are transferred to the assay plate and incubate for 1 hour at room temperature in the dark. Luminescence counts are read on a BMG Fluostar Optima reader according to manufacturer's instructions. For each compound concentration calculate of the percentage of activity compared to DMSO control value as average±STDEV. (each concentration is measured in duplicate)

[2] = biological target: PTRGER4 (EP4) (Homo sapiens (Human), UniProt P35408); experiment: hEP4 b-arrestin assay (PathHunter HEK 293 PTGER4 b-arrestin cells); type: cell-based
From the text: as §1, §2
Plate is pre-incubated 15 minutes at 37° C. Then five microliters of PGE2 (final conc. 20 nM) are transferred into the assay plate. Plate is incubated 120 minutes at 37° C.
as §3, with “average±STDEV.” for “average±STDEV. (each concentration is measured in duplicate)”

[3] = hEP2 b-arrestin assay (values without asterisk)
[4] = hEP4 b-arrestin assay (values without asterisk)
[5] = antagonistic activity on hEP2, mean where measured multiple times
[6] = antagonistic activity on hEP4, mean where measured multiple times

Sequence of PTGER2 (EP2) (P43116 whole entry, the tested form may be a part): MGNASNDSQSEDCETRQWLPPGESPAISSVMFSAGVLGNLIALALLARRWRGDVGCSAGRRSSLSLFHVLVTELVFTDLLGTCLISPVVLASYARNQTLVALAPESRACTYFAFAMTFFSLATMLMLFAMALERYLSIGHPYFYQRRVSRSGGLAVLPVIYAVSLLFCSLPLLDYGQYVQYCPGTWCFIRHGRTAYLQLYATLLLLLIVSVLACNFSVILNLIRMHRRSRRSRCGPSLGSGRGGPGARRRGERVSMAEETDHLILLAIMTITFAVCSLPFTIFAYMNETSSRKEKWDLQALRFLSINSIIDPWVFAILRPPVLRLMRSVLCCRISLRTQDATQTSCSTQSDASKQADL
Sequence of PTRGER4 (EP4) (P35408 whole entry, looked up): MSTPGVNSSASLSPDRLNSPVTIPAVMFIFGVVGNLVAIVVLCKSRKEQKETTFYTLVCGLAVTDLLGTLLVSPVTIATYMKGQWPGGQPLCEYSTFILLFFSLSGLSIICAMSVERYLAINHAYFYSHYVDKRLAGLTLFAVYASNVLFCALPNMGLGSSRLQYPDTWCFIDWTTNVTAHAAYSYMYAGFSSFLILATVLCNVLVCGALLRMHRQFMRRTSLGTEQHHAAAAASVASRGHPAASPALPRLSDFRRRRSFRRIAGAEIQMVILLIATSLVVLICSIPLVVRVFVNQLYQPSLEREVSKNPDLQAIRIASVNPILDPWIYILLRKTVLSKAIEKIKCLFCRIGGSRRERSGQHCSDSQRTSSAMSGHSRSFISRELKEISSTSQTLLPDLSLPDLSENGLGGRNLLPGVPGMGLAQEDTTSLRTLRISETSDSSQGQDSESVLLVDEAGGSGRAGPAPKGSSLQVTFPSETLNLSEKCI

Compound | IC50 [1, 3] [nM] | IC50 [2, 4] [nM] | IC50 [1, 5] [nM] | IC50 [2, 6] [nM]
4-{6-[2-(2-Cyano-7-fluoro-4-methoxy-indol-1-yl)-ethylamino]-pyrimidin-4-yl}-phthalic acid 2-ethyl ester [Example 965] | 53 | 43 | – | –
5-{6-[2-(6-Fluoro-4-methoxy-2-methyl-indol-1-yl)-ethylamino]-pyrimidin-4-yl}-thiophen-3-ol [Example 801] | 20 | 139 | – | –
CCOc1cc(-c2cc(NCC(C)n3c(C)cc4c(OC)ccc(F)c43)ncn2)sc1C(=O)O (racemic) [Example 796, rac-3-Ethoxy-5-{6-[2-(7-fluoro-4-methoxy-2-methyl-indol-1-yl)-propylamino]-pyrimidin-4-yl}-thiophene-2-carboxylic acid] | 48 | 131 | – | –
CCOc1cc(-c2cc(NC(C)Cn3c(C)cc4c(OC)ccc(F)c43)ncn2)sc1C(=O)O (racemic) [Example 797, rac-3-Ethoxy-5-{6-[2-(7-fluoro-4-methoxy-2-methyl-indol-1-yl)-1-methyl-ethylamino]-pyrimidin-4-yl}-thiophene-2-carboxylic acid] | 33 | 64 | – | –
CCOc1cc(-c2cc(NCCn3c(C)cc4c(OC)ccc(F)c43)ncn2)ccc1NC(C)C(=O)O (racemic) [Example 839, rac-2-(2-Ethoxy-4-{6-[2-(7-fluoro-4-methoxy-2-methyl-indol-1-yl)-ethylamino]-pyrimidin-4-yl}-phenylamino)-propionic acid] | 3 | 44 | – | –
CCOc1cc(-c2cc(NCCn3c(C)cc4c(OC)ccc(F)c43)ncn2)ccc1OC(C)C(=O)O (racemic) [Example 843, rac-2-(2-Ethoxy-4-{6-[2-(7-fluoro-4-methoxy-2-methyl-indol-1-yl)-ethylamino]-pyrimidin-4-yl}-phenoxy)-propionic acid] | 11 | 111 | – | –
COc1ccc(F)c2c1cc(C#N)n2CCNc1cc(-c2ccc(C(O)CO)cc2)ncn1 (racemic) [Example 862, rac-1-(2-{6-[4-(1,2-Dihydroxy-ethyl)-phenyl]-pyrimidin-4-ylamino}-ethyl)-7-fluoro-4-methoxy-1H-indole-2-carbonitrile] | 90 | 194 | – | –
COc1cccc2c1cc(C)n2CCNc1cc(-c2ccc3c(c2)C(C)NC3=O)ncn1 (racemic) [compound 86] | – | – | 12 | 873
Cc1ccc(F)c2c1cc(C)n2CCNc1cc(-c2ccc3c(c2)C(C)NC3=O)ncn1 (racemic) [compound 96] | – | – | 17 | 572
CCC1NC(=O)c2ccc(-c3cc(NCCn4c(C)cc5c(OC)cccc54)ncn3)cc21 (racemic) [compound 196] | – | – | 12 | 224
COc1ccc(F)c2c1cc(C)n2CCNc1cc(-c2ccc3c(c2)C(C)NC3=O)ncn1 (racemic) [compound 203] | – | – | 14 | 324
CCC1NC(=O)c2ccc(-c3cc(NCCn4c(C)cc5c(C)ccc(F)c54)ncn3)cc21 (racemic) [compound 207] | – | – | 19 | 645
CCCC1NC(=O)c2ccc(-c3cc(NCCn4c(C)cc5c(OC)cccc54)ncn3)cc21 (racemic) [compound 314] | – | – | 15 | 303
CCC1NC(=O)c2ccc(-c3cc(NCCn4c(C)cc5c(OC)ccc(F)c54)ncn3)cc21 (racemic) [compound 319] | – | – | 10 | 296
CCCC1NC(=O)c2ccc(-c3cc(NCCn4c(C)cc5c(C)ccc(F)c54)ncn3)cc21 (racemic) [compound 322] | – | – | 55 | 295
CCC(C)c1cc(-c2cc(NCCn3c(C)cc4c(C)ccc(F)c43)ncn2)ccc1C(=O)O (racemic) [compound 337] | – | – | 89 | 308

Compound | IC50 [1, 3] [nM] | IC50 [2, 4] [nM] | IC50 [1, 5] [nM] | IC50 [2, 6] [nM]
COc1ccc(F)c2c1cc(C)n2CCNc1cc(-c2ccc(N)cc2)ncn1 [Example 4, [6-(4-amino-phenyl)-pyrimidin-4-yl]-[2-(7-fluoro-4-methoxy-2-methyl-indol-1-yl)-ethyl]-amine] | – | – | 22 | 412
CCOc1cc(-c2cc(NCCn3c(C)cc4c(C)ccc(F)c43)ncn2)ccc1C(=O)O [Example 158, 2-ethoxy-4-{6-[2-(7-fluoro-2,4-dimethyl-indol-1-yl)-ethylamino]-pyrimidin-4-yl}-benzoic acid] | – | – | 39 | 163
CCOc1cc(-c2cc(NCCn3c(C)cc4c(OC)ccc(F)c43)ncn2)sc1C(=O)O [Example 258, 3-Ethoxy-5-{6-[2-(7-fluoro-4-methoxy-2-methyl-indol-1-yl)-ethylamino]-pyrimidin-4-yl}-thiophene-2-carboxylic acid] | – | – | 1 | 10
CCOc1cc(-c2cc(NCCn3c(C)cc4c(OC)ccc(F)c43)ncn2)ccc1C(=O)O [Example 326, 2-ethoxy-4-{6-[2-(7-fluoro-4-methoxy-2-methyl-indol-1-yl)-ethylamino]-pyrimidin-4-yl}-benzoic acid] | – | – | 18 | 224
COc1ccc(F)c2c1cc(C)n2CCNc1cc(-c2ccc(-c3csc(O)n3)cc2)ncn1 [Example 798, 4-(4-{6-[2-(7-Fluoro-4-methoxy-2-methyl-indol-1-yl)-ethylamino]-pyrimidin-4-yl}-phenyl)-thiazol-2-ol] | 28 | 123 | – | –
COc1ccc(F)c2c1cc(C)n2CCNc1cc(-c2cc(O)c(C(=O)O)s2)ncn1 [Example 799, 5-{6-[2-(7-Fluoro-4-methoxy-2-methyl-indol-1-yl)-ethylamino]-pyrimidin-4-yl}-3-hydroxy-thiophene-2-carboxylic acid] | 21 | 59 | – | –
COc1cc(F)cc2c1cc(C)n2CCNc1cc(-c2cc(O)c(C(=O)O)s2)ncn1 [Example 800, 5-{6-[2-(6-Fluoro-4-methoxy-2-methyl-indol-1-yl)-ethylamino]-pyrimidin-4-yl}-3-hydroxy-thiophene-2-carboxylic acid] | 12 | 44 | – | –
COc1ccc(F)c2c1cc(C#N)n2CCNc1cc(-c2cc(OC(C)C)c(C(=O)O)s2)ncn1 [Example 802, 5-{6-[2-(2-Cyano-7-fluoro-4-methoxy-indol-1-yl)-ethylamino]-pyrimidin-4-yl}-3-isopropoxy-thiophene-2-carboxylic acid] | 7 | 1 | – | –
CCOc1cc(-c2cc(NCCn3c(C#N)cc4c(OC)ccc(F)c43)ncn2)ccc1-c1nnn[nH]1 [Example 803, 1-(2-{6-[3-Ethoxy-4-(1H-tetrazol-5-yl)-phenyl]-pyrimidin-4-ylamino}-ethyl)-7-fluoro-4-methoxy-1H-indole-2-carbonitrile] | 10 | 4 | – | –
COc1ccc(F)c2c1cc(C#N)n2CCNc1cc(-c2cc(C(F)(F)F)c(C(=O)O)s2)ncn1 [Example 804, 5-{6-[2-(2-Cyano-7-fluoro-4-methoxy-indol-1-yl)-ethylamino]-pyrimidin-4-yl}-3-trifluoromethyl-thiophene-2-carboxylic acid] | 3 | 2 | – | –
CCOc1cc(-c2cc(NCCn3c(C#N)cc4c(OC)ccc(F)c43)ncn2)sc1C(=O)O [Example 805, 5-{6-[2-(2-cyano-7-fluoro-4-methoxy-indol-1-yl)-ethylamino]-pyrimidin-4-yl}-3-ethoxy-thiophene-2-carboxylic acid] | 4 | 5 | – | –
COc1ccc(F)c2c1cc(C#N)n2CCNc1cc(-c2cc(F)c(C(=O)O)s2)ncn1 [Example 806, 5-{6-[2-(2-Cyano-7-fluoro-4-methoxy-indol-1-yl)-ethylamino]-pyrimidin-4-yl}-3-fluoro-thiophene-2-carboxylic acid] | 7 | 10 | – | –
CCOc1cc(-c2cc(NCCn3c(C#N)cc4c(OC)ccc(F)c43)ncn2)ccc1C(=O)O [Example 807, 4-{6-[2-(2-Cyano-7-fluoro-4-methoxy-indol-1-yl)-ethylamino]-pyrimidin-4-yl}-2-ethoxy-benzoic acid] | 32 | 55 | – | –
CCOc1cc(-c2cc(NCCn3c(C#N)cc4c(OC)ccc(F)c43)ncn2)ccc1OCC(=O)O [Example 808, (4-{6-[2-(2-Cyano-7-fluoro-4-methoxy-indol-1-yl)-ethylamino]-pyrimidin-4-yl}-2-ethoxy-phenoxy)-acetic acid] | 7 | 4 | – | –
CCOc1cc(-c2cc(NCCn3c(C#N)cc4c(OC)ccc(F)c43)ncn2)sc1C(=O)NS(C)(=O)=O [Example 809, N-(5-{6-[2-(2-Cyano-7-fluoro-4-methoxy-indol-1-yl)-ethylamino]-pyrimidin-4-yl}-3-ethoxy-thiophene-2-carbonyl)-methanesulfonamide] | 3 | 6 | – | –
